Numbers after ± are expanded uncertainties.
Test: mn = molality of the nth substance listed, in mol/kg
Settings: 298.15 K, Ring tensiometer

C[C@H](CCC(=O)NCCS(=O)(=O)[O-])[C@H]1CC[C@H]2[C@@H]3[C@H](O)C[C@@H]4C[C@H](O)CC[C@]4(C)[C@H]3C[C@H](O)[C@]12C.[Na+] [sodium taurocholate] + O
Settings | surface tension liquid-gas [mN/m]
m1 = 0.00062 | 53.39 ± 2.1
m1 = 0.00093 | 50.95 ± 2.1
m1 = 0.00149 | 47.64 ± 2.1
m1 = 0.00208 | 45.58 ± 2.1
m1 = 0.00263 | 44.18 ± 2.1
m1 = 0.00313 | 43 ± 2.1
m1 = 0.00354 | 42.08 ± 2.1
m1 = 0.00392 | 41.48 ± 2.1
m1 = 0.00455 | 40.95 ± 2.1
m1 = 0.00489 | 40.5 ± 2.1
m1 = 0.00556 | 40.48 ± 2.1
m1 = 0.0062 | 40.51 ± 2.1
m1 = 0.00714 | 40.45 ± 2.1
m1 = 0.00804 | 40.5 ± 2.1

Source: the NIST ThermoML archive (doi:10.1016/j.jct.2018.02.019)
